Values after ≈ are worked out from the molar mass of the structure shown. Like-named read-outs stand apart in the source and are kept apart here.
Tests used:
[1] = test system: Mycobacterium Tuberculosis Infected Macrophages; settings: intracellular, published study; cited from earlier work
[2] = test system: Murine J774 macrophages infected with a luminescent strain of H37Rv; assay type: cell-based, M. tuberculosis; settings: intracellular
[3] = test system: M. tuberculosis H37Rv; assay: Minimum bactericidal concentration (kill kinetics, 21 days); assay type: cell-based; settings: for MBC: Mycobacterium tuberculosis, H37RV
[4] = test system: M. tuberculosis H37Rv; assay: MIC, IC50 and IC90 under aerobic conditions (growth after five days); assay type: cell-based, Mycobacterium tuberculosis
[5] = test system: Vero African green monkey kidney cell line; assay: Cytotoxicity towards eukaryotic cells; assay type: cell-based; settings: Chlorocebus sabaeus, 48 h, two days
[6] = test system: M. tuberculosis; assay: IC50, IC90 and MIC of amikacin one and two component complexes; assay type: cell-based; settings: Mycobacterium tuberculosis
[7] = test system: H37Rv strain; assay: MIC of amikacin complexes, H37Rv strain; assay type: cell-based, M. tuberculosis; settings: Mycobacterium tuberculosis, second set
[8] = clinical trials, compared to placebo groups; cited from earlier work
[9] = test system: active TB; assay: MIC of capreomycin one and two component systems against active TB; assay type: cell-based, Mycobacterium tuberculosis
Method: The first antibiotic complex investigated with one and two component systems consisted of the second-line TB drug capreomycin which was bound to the copper(II) cation and the aggregate forming water soluble unbranched polymer PEG-3350. […] MIC values are defined as the lowest concentration of an antimicrobial (i.e. antifungal, antibiotic or bacteriostatic) drug that will inhibit the visible growth of a microorganism after incubation and is a common unit used to describe the level of efficacy of an antibiotic against a bacterium.

[10] = rats (oral); cited from earlier work
[11] = in vivo; cited from earlier work
[12] = Mycobacterium tuberculosis, H37RV, aerobic conditions, glucose series
[13] = Mycobacterium tuberculosis, H37RV, aerobic conditions, isoniazid-sucrose series, equal molar ratios
[14] = Mycobacterium tuberculosis, H37RV, aerobic conditions, rifampicin complexes, second set

Which “drop of activity, log(kill) units” value [1] does the source give for `COc1c(N2CC[C@@H](C(C)(C)N)C2)c(F)cc2c(=O)c3c(=O)[nH]sc3n(C3CC3)c12` [ACH-702] here?
The value was ~1.3 log(kill) units.

For `NNC(=O)c1ccncc1` [Isoniazid (INH), isoniazid], which “average log(kill) value” ([2]; average of table eight) is on record?
The value was 2.5.

And the “Log Kill” value ([2]; concentration 1.2 μM)?
The value was 2.5.

And the “Log Kill” value ([2]; concentration 12 μM)?
Its value is 2.5.

And the MBC ([3]; isoniazid-sucrose series)?
Its MBC is 0.3 µM (≈ 0.0411 µg/mL).

What about the IC50 [4, 12] of the same molecule?
Its IC50 is 470 nM.

And the IC90 [4, 12]?
The IC90 was 620 nM.

And the MIC ([4]; Mycobacterium tuberculosis, H37RV, aerobic conditions, glucose series, read-out: MIC)?
The MIC was 0.64 µM (≈ 0.0878 µg/mL).

And the IC50 [4, 13]?
Its IC50 is 630 nM.

And the IC90 [4, 13]?
Its IC90 is 1000 nM.

And the MIC ([4]; Mycobacterium tuberculosis, H37RV, aerobic conditions, isoniazid-sucrose series, equal molar ratios, read-out: MIC)?
Its MIC is 0.97 µM.

And the IC50 [5]?
Its IC50 is > 100000 nM.

With `Cn1nnc(-c2ccc(-c3ccc(N4C[C@H](CO)OC4=O)cc3F)cn2)n1` [Tedizolid] as the molecule, how does the “drop of activity, log(kill) units” value [1] read?
The value was “approximately 1.4 log(kill) units”.

Which IC50 [6] does the source give for `NCC[C@H](O)C(=O)N[C@@H]1C[C@H](N)[C@@H](O[C@H]2O[C@H](CN)[C@@H](O)[C@H](O)[C@H]2O)[C@H](O)[C@H]1O[C@H]1O[C@H](CO)[C@@H](O)[C@H](N)[C@H]1O` [amikacin] here?
The IC50 was 216 nM.

And the IC90 [6]?
The IC90 was 328 nM.

What about the MIC [6] of the same molecule?
Its MIC is 0.39 µM.

And the MIC [7]?
Its MIC is 0.256 µM.

For `COc1nc2ccc(Br)cc2cc1[C@@H](c1ccccc1)[C@@](O)(CCN(C)C)c1cccc2ccccc12` [bedaquiline, Bedaquiline], which “deaths in recipient groups” value [8] is on record?
Its value is 11.4%.

With `[Cl][Cu][Cl]` [copper(II) chloride] as the molecule, how does the MIC [9] read?
Its MIC is 0.39 µM.

What about the LD50 [10] of the same molecule?
The LD50 was 140 mg/kg.

With `CCO` [ethyl alcohol] as the molecule, how does the LD50 [11] read?
Its LD50 is 14,000 mg/kg.

What does the source list for `CO[C@H]1/C=C/O[C@@]2(C)Oc3c(C)c(O)c4c(O)c(c(/C=N/N5CCN(C)CC5)c(O)c4c3C2=O)NC(=O)/C(C)=C\C=C\[C@H](C)[C@H](O)[C@@H](C)[C@@H](O)[C@@H](C)[C@H](OC(C)=O)[C@@H]1C` [rifampicin]?
MBC ([3]; rifampicin complexes): 0.06 µM (≈ 0.0494 µg/mL); MBC/MIC ([3]; rifampicin complexes): 15; MIC ([4]; Mycobacterium tuberculosis, H37RV, H37Rv strain, rifampicin complexes, first set, read-out: MIC): 0.006 µM (≈ 0.00494 µg/mL); IC50 [4, 14]: 3 nM; IC90 [4, 14]: 3 nM; MIC ([4]; Mycobacterium tuberculosis, H37RV, aerobic conditions, rifampicin complexes, second set, read-out: MIC): 0.004 µM (≈ 0.00329 µg/mL)

For `[Cl-].[Na+]` [sodium chloride], which LD50 [11] is on record?
Its LD50 is 3,000 mg/kg.

With `COc1cc(C=O)ccc1O` [vanillin] as the molecule, how does the LD50 [11] read?
The LD50 was 1,580 mg/kg.

Which MIC [9] does the source give for capreomycin here?
Its MIC is 3.13 µM.

For copper (II) chloride dihydrate, which MIC ([4]; H37Rv strain, rifampicin complexes, first set) is on record?
Its MIC is 105.7 µM.

For copper gluconate, which LD50 [10] is on record?
Its LD50 is 1710 mg/kg.

Which LD50 [11] does the source give for vitamin A here?
The LD50 was 2,000 mg/kg.

— patent publication US10335374B2, “Tablet composition for anti-tuberculosis antibiotics” (priority 2014, dated 2019)
